Patent publication US20070010537A1, “Fused pyramidine derivative and use thereof” (priority 2004, published 2007)
Where a name gives a salt, the structure may show the parent alone.

Molecular target: T1, human GnRH receptor (Homo sapiens, UniProt P30968)
T1 construct: expressed in transfected cells; host or cells: CHO (Chinese Hamster Ovary) cells
T1 sequence (P30968 1-328): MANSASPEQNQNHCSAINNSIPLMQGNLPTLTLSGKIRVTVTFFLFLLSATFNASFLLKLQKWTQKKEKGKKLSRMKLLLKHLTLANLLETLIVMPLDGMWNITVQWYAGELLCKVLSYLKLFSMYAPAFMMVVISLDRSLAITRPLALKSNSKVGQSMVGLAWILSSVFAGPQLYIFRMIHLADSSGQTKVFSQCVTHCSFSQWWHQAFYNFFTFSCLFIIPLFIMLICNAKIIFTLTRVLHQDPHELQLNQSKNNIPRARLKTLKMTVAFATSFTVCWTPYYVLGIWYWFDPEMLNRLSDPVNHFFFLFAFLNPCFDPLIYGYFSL
Assay: 125I-leuprorelin binding assay, human GnRH receptor CHO cell membrane fraction
Conditions: 10 nM of the testing compound, room temperature for 1 hour, read-out: Binding inhibitory ratio (%)
Procedure: (1) Production of ^125I-Leuprorelin
10 μL of a 3×10^−4 M aqueous solution of leuprorelin and 10 μL of 0.01 mg/mL lactoperoxidase were placed in a tube, and 10 μL (37 MBq) of a Na^125I solution was added thereto. After stirring, 10 μL of 0.001% H2O2 was added to allow the mixture to undergo a reaction at room temperature for 20 minutes. 700 μL of a 0.05% TFA solution was added to stop the reaction, and purification by reversed phase HPLC was carried out. The conditions for HPLC are described below. ^125I-leuprorelin was eluted at a retention time of 26 to 27 minutes.
(2) Production of CHO (Chinese Hamster Ovary) Cell Membrane Fraction Containing Human GnRH Receptor
Human GnRH receptor-expressing CHO cells were cultured until the cells were reached a 90% confluent state in a T-150 flask. The cells were separated using 0.02% EDTA-PBS and were centrifuged at 500×g for 5 minutes. A homogenate buffer for cells (10 mM NaHCO3, 1 mM EDTA, 1 mM PMSF, 0.5 μg/mL Pepstatin, 2 μg/mL Leupeptin, pH 7.4) was added to the cell pellet, and the mixture was homogenized with a Polytron homogenizer. After centrifugation of the homogenate at 4° C. and at 1000×g for 10 minutes, the supernatant was placed in an ultracentrifuge tube and was centrifuged at 4° C. and at 49,300×g for 1 hour to obtain a precipitate of a membrane fraction. This precipitate was suspended in an assay buffer (50 mM Tris-HCl, 150 mM NaCl, 5 mM EDTA, pH 7.4) and then dispensed and stored at −80° C., so that the suspension can be thawed every time it is taken for use.
(3) Measurement of the Binding Inhibitory Rate of 125I-Leuprorelin
A ^125I-leuprorelin binding assay was carried out using 200 μL of an assay buffer containing 10 μg of human GnRH receptor membrane fraction, […] of ^125I-leuprorelin and 10 nM of the testing compound.
The non-specific binding radioactivity was measured in the presence of 1 μM of non-labeled leuprorelin. After leaving the mixture to stand at room temperature for 1 hour, 125I-leuprorelin was captured on a GF/C filter (PerkinElmer, Inc.), and the filter was washed with ice-cold 50 mM Tris-HCl (pH 7.4) using a cell harvester. After drying the filter, a liquid scintillation cocktail for microplate was added, and the membrane-bound radioactivity was measured using a TopCount.
The value of (TB-SB)/(TB-NSB)×100 (SB: radioactivity upon addition of the compound, TB: maximum binding radioactivity, NSB: non-specific binding radioactivity) was calculated to determine the binding inhibitory rate in the presence of 10 nM of each testing material.

SMILES | inhibition at 0.01 µM
CN(C(=O)c1cc(-n2c(=O)[nH]c3cccc(CO)c3c2=O)c(Cl)s1)c1ccccc1Cl [Example 73(1), 5-Chloro-N-(2-chlorophenyl)-4-[5-(hydroxymethyl)-2,4-dioxo-1,4-dihydroquinazolin-3(2H)-yl]-N-methylthiophene-2-carboxamide] | 91.5%
CN(C(=O)c1cc(-n2c(=O)[nH]c3cccc(CO)c3c2=O)c(Cl)s1)C1CCCCC1 [Example 73, 5-Chloro-N-cyclohexyl-4-[5-(hydroxymethyl)-2,4-dioxo-1,4-dihydroquinazolin-3(2H)-yl]-N-methylthiophene-2-carboxamide] | 79%
Cc1cccc(N(C)C(=O)c2cc(-n3c(=O)[nH]c4cccc(CO)c4c3=O)c(Cl)s2)c1 [Example 73(5), 5-Chloro-4-[5-(hydroxymethyl)-2,4-dioxo-1,4-dihydroquinazolin-3(2H)-yl]-N-methyl-N-(3-methylphenyl)thiophene-2-carboxamide] | 95.6%
NC(=O)c1cccc2[nH]c(=O)n(-c3cc(S(=O)(=O)N4CCCc5ccccc54)ccc3Cl)c(=O)c12 [Example 85, 3-[2-Chloro-5-(3,4-dihydroquinolin-1(2H)-ylsulfonyl)phenyl]-2,4-dioxo-1,2,3,4-tetrahydroquinazoline-5-carboxamide] | 94%
O=c1[nH]c2cccc(CO)c2c(=O)n1-c1cc(S(=O)(=O)N2CCCc3ccccc32)ccc1Cl [Example 36, 3-[2-Chloro-5-(3,4-dihydroquinolin-1(2H)-ylsulfonyl)phenyl]-5-(hydroxymethyl)quinazoline-2,4(1H,3H)-dione] | 96.7%
O=c1[nH]c2ccccc2c(=O)n1-c1cc(S(=O)(=O)N2CCCOc3ccccc32)ccc1Cl [Example 7(8), 3-(2-Chloro-5-(3,4-dihydro-1,5-benzoxazepin-5(2H)-ylsulfonyl)phenyl)-2,4(1H,3H)-quinazolinedione] | 87.6%
CN(C(=O)c1cc(-n2c(=O)[nH]c3cccc(CO)c3c2=O)c(Cl)s1)c1cccc(Cl)c1 [Example 73(2), 5-Chloro-N-(3-chlorophenyl)-4-[5-(hydroxymethyl)-2,4-dioxo-1,4-dihydroquinazolin-3(2H)-yl]-N-methylthiophene-2-carboxamide] | 93.8%
N=c1c2ccccc2[nH]c(=O)n1-c1cc(S(=O)(=O)N2CCCc3ccccc32)ccc1Cl [Example 8(1), 3-(2-Chloro-5-(3,4-dihydro-1(2H)-quinolinylsulfonyl)phenyl)-4-imino-3,4-dihydro-2(1H)-quinazoline trifluoroacetate] | 91.7%
O=c1[nH]c2ccccc2c(=O)n1-c1cc(S(=O)(=O)N2CCCCc3ccccc32)ccc1Cl [Example 7(5), 3-(2-Chloro-5-(2,3,4,5-tetrahydro-1H-1-benzazepin-1-ylsulfonyl)phenyl)-2,4(1H,3H)-quinazolinedione] | 95.6%
O=c1[nH]c2ccccc2c(=O)n1-c1cc(S(=O)(=O)N2CCCCc3sccc32)ccc1Cl [Example 7(70), 3-[2-Chloro-5-(5,6,7,8-tetrahydro-4H-thieno[3,2-b]azepin-4-ylsulfonyl)phenyl]quinazoline-2,4(1H,3H)-dione] | 94.5%
CN(c1ccccc1)S(=O)(=O)c1ccc(Cl)c(-n2c(=O)[nH]c3ccccc3c2=N)c1 [Example 8, 4-Chloro-3-(4-imino-2-oxo-1,4-dihydro-3(2H)-quinazolinyl)-N-methyl-N-phenylbenzenesulfonamide trifluoroacetate] | 84.7%
N#Cc1sc(S(=O)(=O)N2CCCCc3ccccc32)cc1-n1c(=O)[nH]c2ccccc2c1=O [Example 42, 3-(2,4-Dioxo-1,4-dihydroquinazolin-3(2H)-yl)-5-(2,3,4,5-tetrahydro-1H-1-benzazepin-1-ylsulfonyl)thiophene-2-carbonitrile] | 77.4%
CN(C(=O)c1ccc(Cl)c(-n2c(=O)[nH]c3cccc(CO)c3c2=O)c1)c1ccccn1 [Example 46(1), 4-Chloro-3-[5-(hydroxymethyl)-2,4-dioxo-1,4-dihydroquinazolin-3(2H)-yl]-N-methyl-N-pyridin-2-ylbenzamide] | 98.2%
Cc1ccccc1N(C)C(=O)c1cc(-n2c(=O)[nH]c3cccc(CO)c3c2=O)c(Cl)s1 [Example 73(4), 5-Chloro-4-[5-(hydroxymethyl)-2,4-dioxo-1,4-dihydroquinazolin-3(2H)-yl]-N-methyl-N-(2-methylphenyl)thiophene-2-carboxamide] | 82.2%
O=C(O)c1cccc2[nH]c(=O)n(-c3cc(S(=O)(=O)N4CCCc5ccccc54)ccc3Cl)c(=O)c12 [Example 31, 3-[2-Chloro-5-(3,4-dihydroquinolin-1(2H)-ylsulfonyl)phenyl]-2,4-dioxo-1,2,3,4-tetrahydroquinazoline-5-carboxylic acid] | 98.2%
CN(C(=O)c1ccc(Cl)c(-n2c(=O)[nH]c3ccccc3c2=O)c1)c1ccccc1 [Example 14, 4-Chloro-3-(2,4-dioxo-1,4-dihydroquinazolin-3(2H)-yl)-N-methyl-N-phenylbenzamide] | 88.9%
O=c1[nH]c2cccc(CO)c2c(=O)n1-c1cc(S(=O)(=O)N2CCCCc3ccccc32)sc1Cl [Example 47, 3-[2-Chloro-5-(2,3,4,5-tetrahydro-1H-1-benzazepin-1-ylsulfonyl)-3-thienyl]-5-(hydroxymethyl)quinazoline-2,4(1H,3H)-dione] | 94.8%
O=c1[nH]c2ccccc2c(=O)n1-c1cc(S(=O)(=O)N2CCCc3ccccc32)ccc1Cl [Example 6(4), 3-(2-Chloro-5-(3,4-dihydroquinolin-1(2H)-ylsulfonyl)phenyl)quinazoline-2,4(1H,3H)-dione] | 88.5%
CC(C)(O)c1cccc2[nH]c(=O)n(-c3cc(S(=O)(=O)N4CCCc5ccccc54)ccc3Cl)c(=O)c12 [Example 100(1), 3-[2-Chloro-5-(3,4-dihydroquinolin-1(2H)-ylsulfonyl)phenyl]-5-(1-hydroxy-1-methylethyl)quinazoline-2,4(1H,3H)-dione] | 99.9%
COC(=O)c1cccc2[nH]c(=O)n(-c3cc(S(=O)(=O)N4CCCc5ccccc54)ccc3Cl)c(=O)c12 [Example 30, Methyl 3-[2-chloro-5-(3,4-dihydroquinolin-1(2H)-ylsulfonyl)phenyl]-2,4-dioxo-1,2,3,4-tetrahydroquinazoline-5-carboxylate] | 98%
O=c1[nH]c2ccccc2c(=O)n1-c1cc(S(=O)(=O)N2CCCc3ccccc32)ccc1F [Example 7(22), 3-[5-(3,4-Dihydroquinolin-1(2H)-ylsulfonyl)-2-fluorophenyl]quinazoline-2,4(1H,3H)-dione] | 75.5%
CC(C)CN(C)C(=O)c1cc(-n2c(=O)[nH]c3cccc(CO)c3c2=O)c(Cl)s1 [Example 89, 5-Chloro-4-[5-(hydroxymethyl)-2,4-dioxo-1,4-dihydroquinazolin-3(2H)-yl]-N-isobutyl-N-methylthiophene-2-carboxamide] | 76.2%
CN(C(=O)c1cc(-n2c(=O)[nH]c3cccc(CO)c3c2=O)c(Cl)s1)c1ccccc1 [Example 21(12), 5-Chloro-4-[5-(hydroxymethyl)-2,4-dioxo-1,4-dihydroquinazolin-3(2H)-yl]-N-methyl-N-phenylthiophene-2-carboxamide] | 84.2%
